Results taken from ChEMBL document CHEMBL3044568, “Synthesis, analgesic, anti-inflammatory, and in vitro antimicrobial activities of some novel quinazolin-4(3H)-one derivatives” (Med Chem Res, 2013).
≈ marks a conversion by molar mass, not a printed value.

Legend:
Mus musculus [1] = experiment: Analgesic activity in Mus musculus […] albino (mouse) at 10 mg/kg, po measured at 30 min by tail flick test (reference value: 4 +/- 0.72%)
[2] = tested on: Staphylococcus epidermidis; experiment: Antibacterial activity against Staphylococcus epidermidis ATCC 155 assessed as growth inhibition after 24 hr by agar streak dilution method; assay type: functional; settings: ATCC 155, 24 h
Mus musculus [3] = experiment: Analgesic activity in Mus musculus […] albino (mouse) at 20 mg/kg, po measured at 1 hr by tail flick test (reference value: 5 +/- 0.49%)
Mus musculus [4] = experiment: Analgesic activity in Mus musculus […] albino (mouse) at 20 mg/kg, po measured at 30 min by tail flick test (reference value: 4 +/- 0.72%)
Rattus norvegicus [5] = experiment: Anti-inflammatory activity in Rattus norvegicus Wistar (rat) assessed as protection against carrageenan-induced paw edema at 10 mg/kg, po measured at 1 hr by plethysmographic analysis (reference value: 6 +/- 0.63%); assay type: functional
Rattus norvegicus [6] = experiment: Anti-inflammatory activity in Rattus norvegicus Wistar (rat) assessed as protection against carrageenan-induced paw edema at 20 mg/kg, po measured at 3 hr by plethysmographic analysis (reference value: 4 +/- 0.75%); assay type: functional
Mus musculus [7] = experiment: Analgesic activity in Mus musculus […] albino (mouse) at 20 mg/kg, po measured at 3 hr by tail flick test (reference value: 3 +/- 0.41%)
Rattus norvegicus [8] = experiment: Anti-inflammatory activity in Rattus norvegicus Wistar (rat) assessed as protection against carrageenan-induced paw edema at 20 mg/kg, po measured at 2 hr by plethysmographic analysis (reference value: 5 +/- 0.41%); assay type: functional
Staphylococcus aureus = experiment: Antibacterial activity against Staphylococcus aureus ATCC 9144 assessed as growth inhibition after 24 hr by agar streak dilution method; assay type: functional; settings: ATCC 9144, 24 h
Mus musculus [9] = experiment: Analgesic activity in Mus musculus […] albino (mouse) at 20 mg/kg, po measured at 2 hr by tail flick test (reference value: 6 +/- 0.84%)
Escherichia coli = experiment: Antibacterial activity against Escherichia coli ATCC 25922 assessed as growth inhibition after 24 hr by agar streak dilution method; assay type: functional; settings: ATCC 25922, 24 h
Rattus norvegicus [10] = experiment: Anti-inflammatory activity in Rattus norvegicus Wistar (rat) assessed as protection against carrageenan-induced paw edema at 20 mg/kg, po measured at 30 min by plethysmographic analysis (reference value: 4 +/- 0.28%); assay type: functional
Aspergillus fumigatus = experiment: Antifungal activity against Aspergillus fumigatus ATCC 46645 assessed as growth inhibition after 48 hr by agar streak dilution method; assay type: functional; settings: ATCC 46645, 48 h
Micrococcus luteus = experiment: Antibacterial activity against Micrococcus luteus ATCC 4698 assessed as growth inhibition after 24 hr by agar streak dilution method; assay type: functional; settings: ATCC 4698, 24 h
Rattus norvegicus [11] = experiment: Anti-inflammatory activity in Rattus norvegicus Wistar (rat) assessed as protection against carrageenan-induced paw edema at 20 mg/kg, po measured at 1 hr by plethysmographic analysis (reference value: 6 +/- 0.63%); assay type: functional
Bacillus cereus = experiment: Antibacterial activity against Bacillus cereus ATCC 11778 assessed as growth inhibition after 24 hr by agar streak dilution method; assay type: functional; settings: ATCC 11778, 24 h
Mus musculus [12] = experiment: Analgesic activity in Mus musculus […] albino (mouse) at 10 mg/kg, po measured at 3 hr by tail flick test (reference value: 3 +/- 0.41%)
Aspergillus niger = experiment: Antifungal activity against Aspergillus niger ATCC 9029 assessed as growth inhibition after 48 hr by agar streak dilution method; assay type: functional; settings: ATCC 9029, 48 h
Pseudomonas aeruginosa = experiment: Antibacterial activity against Pseudomonas aeruginosa […] assessed as growth inhibition after 24 hr by agar streak dilution method; assay type: functional
Rattus norvegicus [13] = experiment: Anti-inflammatory activity in Rattus norvegicus Wistar (rat) assessed as protection against carrageenan-induced paw edema at 10 mg/kg, po measured at 3 hr by plethysmographic analysis (reference value: 4 +/- 0.75%); assay type: functional
Rattus norvegicus [14] = experiment: Ulcerogenecity in Rattus norvegicus Wistar albino (rat) stomach assessed as ulcer index administered 20 mg/kg, ip qd for 3 days measured on day 4 (reference value: 0.13 +/- 0.05 no unit); assay type: ADME, organism-based; design: dose 20 mg/kg, route intraperitoneal; settings: in vivo, 72 h
Klebsiella pneumoniae = experiment: Antibacterial activity against Klebsiella pneumoniae ATCC 11298 assessed as growth inhibition after 24 hr by agar streak dilution method; assay type: functional; settings: ATCC 11298, 24 h
Rattus norvegicus [15] = experiment: Anti-inflammatory activity in Rattus norvegicus Wistar (rat) assessed as protection against carrageenan-induced paw edema at 10 mg/kg, po measured at 2 hr by plethysmographic analysis (reference value: 5 +/- 0.41%); assay type: functional
Mus musculus [16] = experiment: Analgesic activity in Mus musculus […] albino (mouse) at 10 mg/kg, po measured at 1 hr by tail flick test (reference value: 5 +/- 0.49%)
Rattus norvegicus [17] = experiment: Ulcerogenecity in Rattus norvegicus Wistar albino (rat) stomach assessed as ulcer index administered 20 mg/kg, ip qd for 3 days measured on day 4 relative to aspirin; assay type: ADME, organism-based; design: dose 20 mg/kg, route intraperitoneal; settings: in vivo, 72 h
Rattus norvegicus [18] = experiment: Ulcerogenecity in Rattus norvegicus Wistar albino (rat) stomach assessed as ulcer index administered 20 mg/kg, ip qd for 3 days measured on day 4 relative to diclofenac; assay type: ADME, organism-based; design: dose 20 mg/kg, route intraperitoneal; settings: in vivo, 72 h
Mus musculus [19] = experiment: Analgesic activity in Mus musculus […] albino (mouse) at 10 mg/kg, po measured at 2 hr by tail flick test (reference value: 6 +/- 0.84%)
Rattus norvegicus [20] = experiment: Anti-inflammatory activity in Rattus norvegicus Wistar (rat) assessed as protection against carrageenan-induced paw edema at 10 mg/kg, po measured at 30 min by plethysmographic analysis (reference value: 4 +/- 0.28%); assay type: functional

| Compound | Activity (Mus musculus [1]) | MIC [2] | Activity (Mus musculus [3]) | Activity (Mus musculus [4]) | Activity (Rattus norvegicus [5]) | Activity (Rattus norvegicus [6]) | Activity (Mus musculus [7]) | Activity (Rattus norvegicus [8]) | MIC (Staphylococcus aureus) | Activity (Mus musculus [9]) | MIC (Escherichia coli) | Activity (Rattus norvegicus [10]) | MIC (Aspergillus fumigatus) | MIC (Micrococcus luteus) | Activity (Rattus norvegicus [11]) | MIC (Bacillus cereus) | Activity (Mus musculus [12]) | MIC (Aspergillus niger) | MIC (Pseudomonas aeruginosa) | Activity (Rattus norvegicus [13]) | other results |
| --- | --- | --- | --- | --- | --- | --- | --- | --- | --- | --- | --- | --- | --- | --- | --- | --- | --- | --- | --- | --- | --- |
| Cc1nc2ccccc2c(=O)n1-c1ccc(NC(=O)CN/N=C/c2ccc(F)cc2)cc1 | 32% | 7.81 µg/mL (≈ 18.2 µM) | 54% | 44% | 33% | 36% | 35% | 52% | 31.2 µg/mL (≈ 72.8 µM) | 58% | 31.2 µg/mL (≈ 72.8 µM) | 37% | 15.6 µg/mL (≈ 36.4 µM) | 15.6 µg/mL (≈ 36.4 µM) | 49% | 7.81 µg/mL (≈ 18.2 µM) | 31% | 31.2 µg/mL (≈ 72.8 µM) | 7.81 µg/mL (≈ 18.2 µM) | 29% | UI (Rattus norvegicus [14]): 0.64 no unit; MIC (Klebsiella pneumoniae): 3.9 µg/mL (≈ 9.08 µM); Activity (Rattus norvegicus [15]): 36%; Activity (Mus musculus [16]): 38%; UI (Rattus norvegicus [17]): 31%; UI (Rattus norvegicus [18]): 34%; Activity (Mus musculus [19]): 42%; Activity (Rattus norvegicus [20]): 26% |
| Cc1ccc(/C=N/NCC(=O)Nc2ccc(-n3c(C)nc4ccccc4c3=O)cc2)cc1 | 37% | 62.5 µg/mL (≈ 147 µM) | 59% | 48% | 35% | 39% | 41% | 60% | 125 µg/mL (≈ 294 µM) | 63% | 62.5 µg/mL (≈ 147 µM) | 41% | 125 µg/mL (≈ 294 µM) | 125 µg/mL (≈ 294 µM) | 54% | 31.2 µg/mL (≈ 73.4 µM) | 37% | 62.5 µg/mL (≈ 147 µM) | 62.5 µg/mL (≈ 147 µM) | 31% | UI (Rattus norvegicus [14]): 0.61 no unit; MIC (Klebsiella pneumoniae): 31.2 µg/mL (≈ 73.4 µM); Activity (Rattus norvegicus [15]): 41%; Activity (Mus musculus [16]): 42%; UI (Rattus norvegicus [17]): 31%; UI (Rattus norvegicus [18]): 34%; Activity (Mus musculus [19]): 47%; Activity (Rattus norvegicus [20]): 30% |
| Cc1nc2ccccc2c(=O)n1-c1ccc(NC(=O)CN/N=C/c2ccc(Cl)cc2)cc1 | 36% | 15.6 µg/mL (≈ 35 µM) | 58% | 50% | 37% | 42% | 40% | 59% | 31.2 µg/mL (≈ 70.1 µM) | 64% | 31.2 µg/mL (≈ 70.1 µM) | 43% | 7.81 µg/mL (≈ 17.5 µM) | 7.81 µg/mL (≈ 17.5 µM) | 52% | 15.6 µg/mL (≈ 35 µM) | 35% | 15.6 µg/mL (≈ 35 µM) | 15.6 µg/mL (≈ 35 µM) | 34% | UI (Rattus norvegicus [14]): 0.59 no unit; MIC (Klebsiella pneumoniae): 7.81 µg/mL (≈ 17.5 µM); Activity (Rattus norvegicus [15]): 43%; Activity (Mus musculus [16]): 45%; UI (Rattus norvegicus [17]): 31%; UI (Rattus norvegicus [18]): 34%; Activity (Mus musculus [19]): 48%; Activity (Rattus norvegicus [20]): 31% |
| Cc1nc2ccccc2c(=O)n1-c1ccc(NC(=O)CN/N=C/c2ccc(C(F)(F)F)cc2)cc1 | 40% | 15.6 µg/mL (≈ 32.6 µM) | 63% | 53% | 40% | 47% | 45% | 65% | 15.6 µg/mL (≈ 32.6 µM) | 70% | 31.2 µg/mL (≈ 65.2 µM) | 46% | 15.6 µg/mL (≈ 32.6 µM) | 7.81 µg/mL (≈ 16.3 µM) | 57% | 3.9 µg/mL (≈ 8.13 µM) | 39% | 7.81 µg/mL (≈ 16.3 µM) | 7.81 µg/mL (≈ 16.3 µM) | 39% | UI (Rattus norvegicus [14]): 0.55 no unit; MIC (Klebsiella pneumoniae): 7.81 µg/mL (≈ 16.3 µM); Activity (Rattus norvegicus [15]): 46%; Activity (Mus musculus [16]): 48%; UI (Rattus norvegicus [17]): 32%; UI (Rattus norvegicus [18]): 32%; Activity (Mus musculus [19]): 53%; Activity (Rattus norvegicus [20]): 35% |
| COc1ccc(/C=N/NCC(=O)Nc2ccc(-n3c(C)nc4ccccc4c3=O)cc2)cc1 | 24% | 62.5 µg/mL (≈ 142 µM) | 40% | 35% | 25% | 30% | 28% | 42% | 125 µg/mL (≈ 283 µM) | 48% | 125 µg/mL (≈ 283 µM) | 31% | 62.5 µg/mL (≈ 142 µM) | 62.5 µg/mL (≈ 142 µM) | 37% | 62.5 µg/mL (≈ 142 µM) | 23% | 62.5 µg/mL (≈ 142 µM) | 62.5 µg/mL (≈ 142 µM) | 19% | UI (Rattus norvegicus [14]): 0.86 no unit; MIC (Klebsiella pneumoniae): 31.2 µg/mL (≈ 70.8 µM); Activity (Rattus norvegicus [15]): 29%; Activity (Mus musculus [16]): 32%; UI (Rattus norvegicus [17]): 51%; UI (Rattus norvegicus [18]): 51%; Activity (Mus musculus [19]): 35%; Activity (Rattus norvegicus [20]): 22% |
